Source: patent US8445636B2, “Antimicrobial and anticancer lipopeptides” (Yeda Research & Development Co. Ltd., priority 2003, dated 2013)
In brackets after ≈: the same amount, converted by molar mass. Like-named read-outs stand apart in the source and are kept apart here. Non-standard residues stand in square brackets, D forms with d. Residues, ends and D or L forms follow the SMILES beside them. *: point of attachment. Lauroyl = CCCCCCCCCCCC(=O)*

Tests used:
[1] = system: Cryptococcus neoformans ATCC 66031; experiment: microbe, parasite or virus in culture; type: cell-based
In short: (§1)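 MIC = lowest concentration giving 100% growth inhibition by A620 after 24-48 h at 35 °C with agitation. Inoculum: 1×10^4 CFU/ml (pre-mix) in RPMI 1640/0.165 M MOPS; pH 7.4 by default, 5.5 where noted. Peptide as twofold dilution series in water.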

[2] = system: Candida albicans ATCC 10231; experiment: microbe, parasite or virus in culture; type: cell-based
In short: as §1

E. coli D21 = type: cell-based
[3] = system: Pseudomonas aeruginosa ATCC 27853; type: cell-based
In short: (§2)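 Lipopeptides were serially diluted 2-fold in water and combined with an equal volume of bacterial suspension (1×10^6 CFU/ml) in LB medium, normally at pH 7.4. Plates were incubated 18-20 h at 37° C, absorbance at 600 nm was measured, and the MIC was taken as the concentration fully inhibiting growth.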

[4] = system: Escherichia coli ATCC 25922; type: cell-based
In short: as §2

[5] = system: Acinetobacter baumannii ATCC 19606; type: cell-based
In short: as §2

[6] = system: Staphylococcus aureus ATCC 6538P; type: cell-based
In short: as §2

[7] = system: Prostate cancer cell line CL1; experiment: Cytotoxicity, XTT viability; type: cell-based, human; settings: 24 h incubation, read-out: LC50, Prostate cancer CL1
Description: (§3) Prostate cancer cell lines (CL1 and 22RV1; ATCC, USA) were grown in RPMI-1640 supplemented with 10% FCS (Biological Industries, Beit Haemek, Israel). N1H-3T3 mouse fibroblast cell line (ATCC, USA) was grown in DMEM supplemented with 10% bovine serum. To test cytotoxicity against the cancer cells, aliquots of medium containing 1×10^4 cells were distributed into a 96-well plate (Falcon). After one day, the media were replaced with 90 μl of fresh media and 10 μl of a solution containing different concentrations of the peptides. The plate was then incubated for 24 h before adding to each well 50 μl of XTT reaction solution (Biological Industries, Beit Haemek, Israel); viability was determined as previously described (Papo et al., (2003) J. Biol. Chem. 278:21018-23). The LC50 (concentration at which 50% of the cells die) for each peptide was obtained from the dose-dependent cell viability curves.

[8] = system: Prostate cancer cell line 22RV1; experiment: Cytotoxicity, XTT viability; type: cell-based, human; settings: 24 h incubation, read-out: LC50, Prostate cancer 22RV1
Description: as §3

[9] = system: Aspergillus fumigatus ATCC 26430; experiment: microbe, parasite or virus in culture; type: cell-based
[10] = Cytotoxicity, XTT viability, non-cancer cells; type: cell-based; settings: mouse, non-cancer cell line, 24 h incubation, read-out: LC50, 3T3
Description: as §3

Structure (SMILES): CCCCCCCCCCCC(=O)N[C@H](CC(C)C)C(=O)N[C@@H](CCCNC(=N)N)C(=O)N[C@@H](CCCNC(=N)N)C(=O)N[C@H](CC(C)C)C(=O)N[C@H](CC(C)C)C(=O)N[C@@H](CCCNC(=N)N)C(=O)N[C@@H](CCCNC(=N)N)C(=O)N[C@H](CC(C)C)C(=O)N[C@H](CC(C)C)C(=O)N[C@@H](CCCNC(=N)N)C(=O)N[C@@H](CCCNC(=N)N)C(=O)N[C@H](CC(C)C)C(N)=O [lipopeptide 25, (CH3-(CH2)10-CO-)-D-Leu-Arg-Arg-D-Leu-D-Leu-Arg-Arg-D-Leu-D-Leu-Arg-Arg-D-Leu-NH2] (Lauroyl-[dL]RR[dL][dL]RR[dL][dL]RR[dL]-NH2)
- MIC ([1]; ATCC 66031, pH 5.5, read-out: Minimal inhibitory concentrations, C. Neofor. With serum): 2.34 µM (≈ 4.25 µg/mL)
- MIC ([1]; ATCC 66031, pH 5.5, read-out: Minimal inhibitory concentrations, C. Neofor. Without serum): <0.78 µM
- MIC ([1]; ATCC 66031, pH 7.4, read-out: Minimal inhibitory concentrations, C. Neofor. With serum): <0.78 µM
- MIC ([1]; ATCC 66031, pH 7.4, read-out: Minimal inhibitory concentrations, C. Neofor. Without serum): <0.78 µM
- MIC ([2]; ATCC 10231, pH 5.5, read-out: Minimal inhibitory concentrations, C. Albicans With serum): 100 µM (≈ 182 µg/mL)
- MIC ([2]; ATCC 10231, pH 5.5, read-out: Minimal inhibitory concentrations, C. Albicans Without serum): 12.5 µM (≈ 22.7 µg/mL)
- MIC ([2]; ATCC 10231, pH 7.4, read-out: Minimal inhibitory concentrations, C. Albicans With serum): 100 µM (≈ 182 µg/mL)
- MIC ([2]; ATCC 10231, pH 7.4, read-out: Minimal inhibitory concentrations, C. Albicans Without serum): 3.125 µM (≈ 5.67 µg/mL)
- Minimal inhibitory concentrations, E. Coli D21 (E. coli D21; D21, pH 5.5): 50 µM (≈ 90.8 µg/mL)
- Minimal inhibitory concentrations, E. Coli D21 (E. coli D21; D21, pH 7.4): 50 µM (≈ 90.8 µg/mL)
- Minimal inhibitory concentrations, P. Aeruginosa ATCC 27853 ([3]; ATCC 27853, pH 5.5): 50 µM (≈ 90.8 µg/mL)
- Minimal inhibitory concentrations, P. Aeruginosa ATCC 27853 ([3]; ATCC 27853, pH 7.4): 50 µM (≈ 90.8 µg/mL)
- Minimal inhibitory concentrations, E. Coli ATCC 25922 ([4]; ATCC 25922, pH 5.5): 100 µM (≈ 182 µg/mL)
- Minimal inhibitory concentrations, E. Coli ATCC 25922 ([4]; ATCC 25922, pH 7.4): >100 µM
- Minimal inhibitory concentrations, A. baumannii ATCC 19606 ([5]; ATCC 19606, pH 5.5): 75 µM (≈ 136 µg/mL)
- Minimal inhibitory concentrations, A. baumannii ATCC 19606 ([5]; ATCC 19606, pH 7.4): >100 µM
- Minimal inhibitory concentrations, S. aureus II ATCC 6538P ([6]; ATCC 6538, pH 5.5): 50 µM (≈ 90.8 µg/mL)
- Minimal inhibitory concentrations, S. aureus II ATCC 6538P ([6]; ATCC 6538, pH 7.4): 12.5 µM (≈ 22.7 µg/mL)
- CC50 [7]: 3.12 µM
- CC50 [8]: 3.12 µM
- MIC ([9]; ATCC 26430, pH 5.5, read-out: Minimal inhibitory concentrations, A. Fumig. With serum): 50 µM (≈ 90.8 µg/mL)
- MIC ([9]; ATCC 26430, pH 5.5, read-out: Minimal inhibitory concentrations, A. Fumig. Without serum): 6.25 µM (≈ 11.3 µg/mL)
- MIC ([9]; ATCC 26430, pH 7.4, read-out: Minimal inhibitory concentrations, A. Fumig. With serum): 50 µM (≈ 90.8 µg/mL)
- MIC ([9]; ATCC 26430, pH 7.4, read-out: Minimal inhibitory concentrations, A. Fumig. Without serum): 3.125 µM (≈ 5.67 µg/mL)
- CC50 at 24 h [10]: 100 µM
